The text below walks through data of PMC6135396, “Repurposing antimalarial aminoquinolines and related compounds for treatment of retinal neovascularization” (PLoS ONE, 2018).

Series [1] relates to human retinal microvascular endothelial cells (HRECs). Briefly: In vitro HREC tube formation assay. It counts as cell-based. The note with it: for Stimulation of HREC endothelial tube formation: factor added alone. As to the method: In vitro tube formation assays were carried out as previously described. Briefly, near confluent microvascular endothelial cells were pretreated with VEGF (100 ng/ml) for 2 h and then treated for 24 h with test compounds at serial concentrations, as indicated. Cells without VEGF treatment or with VEGF only were used as control. The cells were then detached and plated sparsely (2.5 ×10^4/well) on 24-well plates coated with 12.5% (v/v) Matrigel (BD, Franklin Lakes, NJ) and left overnight. The medium was then aspirated and 250 μl/well of 12.5% Matrigel was overlaid on the cells for 2 h to allow the polymerization of Matrigel, followed by addition of 500 μl/well of basal medium MCD131 with 10% fetal calf serum (FCS) for 24 h. The following day, the culture plates were observed under a phase contrast microscope and photographed at random in five fields (×10). The tubule length (mm/mm^2) per microscope field was quantified.

Series [2] is described as follows: Cytotoxicity, ATP-Lite, Fa2N-4 immortalized human hepatocytes. It counts as cell-based. The conditions noted are these: ATP-lite assay, Fa2-N4 cells. As to the method: (§1) Fa2N-4 immortalized human hepatocytes (Xenotech) or HREC cells were grown to subconfluency in wells of a 96-well plate and exposed to different concentrations of compounds for 24 h after which the cells were washed and the media and compounds replaced. The cells were returned to the incubator for another 24 h. The extent of cell death (cell lysis) was determined by ATP-Lite reagent (Perkin-Elmer).

The target of series [3] is T1, angiotensin II type 1 (AT1) (Homo sapiens, UniProt P30556).
T1 construct: β-galactosidase enzyme fragment (enzyme fragment complementation construct); host or cells: CHO-K1 (CHO-K1-AT1, PathHunter)
T1 sequence (P30556 1-359): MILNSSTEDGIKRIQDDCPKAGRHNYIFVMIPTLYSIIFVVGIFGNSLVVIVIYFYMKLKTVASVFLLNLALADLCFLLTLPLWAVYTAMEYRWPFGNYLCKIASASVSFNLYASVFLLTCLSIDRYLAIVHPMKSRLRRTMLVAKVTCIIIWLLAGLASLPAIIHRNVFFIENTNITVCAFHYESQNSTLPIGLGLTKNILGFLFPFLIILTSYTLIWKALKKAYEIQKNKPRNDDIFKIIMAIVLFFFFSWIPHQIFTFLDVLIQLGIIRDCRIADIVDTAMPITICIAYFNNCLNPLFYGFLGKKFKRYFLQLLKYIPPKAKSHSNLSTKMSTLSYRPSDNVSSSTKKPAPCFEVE
Briefly: AT1 β-arrestin recruitment counter assay (CHO-K1-AT1). In kind it is cell-based. As for the experimental part: (§2) PathHunter™ GPCR Arrestin and cAMP Hunter™ cell lines (DiscoveRx Corp., Fremont, CA) were used to assay G-protein-dependent signaling and β-arrestin recruitment to APJ. CHO-K1 cells stably expressing APJ (CHO-K1-APJ) or AT1 (CHO-K1-AT1) with β-arrestin/β-galactosidase enzyme fragment complementation constructs were maintained in HAM's F-12 medium (Hyclone, Logan, UT) supplemented with 10% FBS, 1X Penicillin-Streptomycin-Glutamine (Invitrogen; Carlsbad, CA), 300 μg/ml hygromycin (EMD Biosciences, San Diego, CA), and 800 μg/ml Geneticin (Cellgro, Manassas, VA). Primary Human Retinal Microvascular Endothelial Cells (HRECs) were purchased from Cell Systems (Kirkland, WA) and maintained in Complete Classic Medium with CultureBoost-R™ (Cell Systems). Parent CHO-K1 cells were obtained from ATCC and maintained in HAM’s F-12 medium supplemented with 10% FBS, and1X Penicillin-Streptomycin-Glutamine (Invitrogen; Carlsbad, CA). All cells were incubated at 37°C (5% CO2, 95% relative humidity) and maintained at less than 70% to 80% confluence (approximately 75,000 cells/cm^2). Cell heterologously expressing APJ or AT1 were not used after 10 passages. HRECs were not used in any experiments after five passages.
(§3) CHO-K1 cells engineered to over-express APJ or AT1, and β-arrestin were removed from flasks using TrypLE Select (1X), no phenol red (Life Technologies, Grand Island, NY), centrifuged, and resuspended in CP2 Reagent (DiscoveRx, Fremont, CA). Cells were counted using a Countess Automated Cell Counter (Invitrogen, Carlsbad, CA) and 5,000 cells/well were plated in a 384-well tissue culture treated microplate (Corning, Corning, NY). All plates were incubated overnight at 37°C, 5% CO2 in a final volume of 25 μl/well. Following incubation, 5 μl of peptides (10-point concentrations) and controls prepared in ligand buffer (1X HBSS, 10 mM HEPES, 0.1% BSA) were added to cells and incubated at 37°C for 1.5 h. Using a Multidrop Combi Reagent Dispenser (Thermo Scientific), 12 μl of Detection Reagent (DiscoveRx) comprised of substrate and co-factors was added to all wells and incubated at room temperature in the dark for 1 h. Chemiluminescent signal was detected on an EnVision Multi-label plate reader (Perkin Elmer) using a counting time of 1 s/well. The robustness of data from each screening plate and run was monitored by Z’ and Signal Window calculation.

The test system of a further series is parental CHO-K1 cells. Nature of the series: Parental cAMP counter assay (cells lacking APJ). In kind it is cell-based. The conditions noted are these: Cricetulus griseus. As for the experimental part: (§4) To identify small-molecule antagonists of the apelin receptor (APJ) we interrogated the SBP compound file of ~425,000 compounds using CHO-k1-AGTRL1 cells overexpressing human APJ and a competitive immunoassay of intracellular cAMP [59]. The compound file was screened at a concentration of 10 μM. For all 333 plates assayed, the average Z-factor = 0.68 and the average S/B = 8.2, indicating a robust assay performance. […] There were 2550 compounds that met this criterion, representing a hit rate of ~0.6%. […] Included in this hit set was a series of aminoquinolines, exemplified by compound 1 (Fig 1B). […] As part of an initial hit-validation strategy, these compounds and three other commercially available analogs were purchased for further testing. The purity and identify of all compounds were confirmed by NMR and LC-MS, and they were subsequently retested in a battery of cell-based assays of APJ function and counter screens. […] (Fig 1D).
as §2
(§5) All reagents unless otherwise specified are components of the cAMP HitHunter (DiscoveRx) kit. Ligand Buffer + 60 μM Forskolin (Cayman Chemical, Ann Arbor, MI) was made fresh on the day of the experiment and used for the dilution of positive and negative controls as well as all peptides. CHO-K1-APJ cells were dispensed into a 1536-well tissue culture microplate (Corning, Corning, NY) using a Multidrop at a seeding density of 1,000 cells/well and returned to the incubator. The next day, the cell culture media was removed and replaced with 15 μl/well of assay buffer (1X HBSS, 10 mM HEPES) containing anti-cAMP antibody (DiscoveRx). […] Plates were incubated at room temperature in the dark for 3 hours prior to chemiluminescence detection on an EnVision (Perkin Elmer) using a counting time of 1 s/well.

Series [4] addresses T2, APJ (Homo sapiens, UniProt P35414).
T2 sequence (P35414 1-380): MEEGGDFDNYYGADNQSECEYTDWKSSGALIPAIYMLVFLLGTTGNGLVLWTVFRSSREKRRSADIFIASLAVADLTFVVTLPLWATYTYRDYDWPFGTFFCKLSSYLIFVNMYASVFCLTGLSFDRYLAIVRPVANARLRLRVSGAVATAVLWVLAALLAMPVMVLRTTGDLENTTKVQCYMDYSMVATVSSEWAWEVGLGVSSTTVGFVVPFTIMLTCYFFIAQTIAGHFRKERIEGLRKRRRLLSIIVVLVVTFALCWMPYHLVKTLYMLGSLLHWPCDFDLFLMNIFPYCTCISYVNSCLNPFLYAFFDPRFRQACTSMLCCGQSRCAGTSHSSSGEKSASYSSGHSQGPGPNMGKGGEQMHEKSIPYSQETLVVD
Nature of the series: APJ cAMP assay (primary, cAMP HitHunter, CHO-K1-APJ cells). It counts as cell-based. More on the design: host or cells: CHO-K1 (CHO-K1-APJ / CHO-k1-AGTRL1). As for the experimental part: as §4, §2, §5

The target in series [5] is T2, APJ. Briefly: APJ β-arrestin recruitment assay (PathHunter, CHO-K1-APJ). In kind it is cell-based. More on the design: β-galactosidase enzyme fragment (enzyme fragment complementation construct); host or cells: CHO-K1 (CHO-K1-APJ, PathHunter). The conditions noted are these: for IC50: secondary assay, Ap13-mediated β-arrestin recruitment. As for the experimental part:
as §2, §3

The test system of series [6] is HRECs. Nature of the series: Cytotoxicity, ATP-Lite, HRECs. The note with it: tested up to 100 μM. In kind it is cell-based. As for the experimental part: as §1
The test system of series [7] is HRECs. The note with it: VEGF 100 ng/mL, Ap13 10 nM. As to the method: The proliferation of HRECs was monitored by the crystal violet assay as described in our previous publication. […] After washing three times with PBS, the plates were air-dried and the remaining stain was dissolved in, 10% acetic acid and absorbance measured with a microplate reader at 540 nm.

The subject of series [8] is HRECs. The conditions noted are these: VEGF 100 ng/mL, Ap13 10 nM. As for the experimental part:
Migration was determined by the QCM™ chemotaxis 5 μm 96-well cell migration assay (Chemicon International, Inc.) as per the manufacture’s protocol. […] After 16 h, cells that migrated to the basal side of the chamber insert membrane were detached, lysed and detected using CyQuant GR™ dye. Migration is expressed as percent increase in migrated cells compared to untreated cells.
The source holds these as a separate data set.

[9] abbreviates: Fa2N-4 immortalized human hepatocytes.

For `CSCC[C@H](NC(=O)[C@@H]1CCCN1C(=O)CNC(=O)[C@H](CCCCN)NC(=O)[C@H](Cc1c[nH]cn1)NC(=O)[C@H](CO)NC(=O)[C@H](CC(C)C)NC(=O)[C@H](CCCNC(=N)N)NC(=O)[C@@H]1CCCN1C(=O)[C@H](CCCNC(=N)N)NC(=O)[C@@H](N)CCC(N)=O)C(=O)N1CCC[C@H]1C(=O)N[C@@H](Cc1ccccc1)C(=O)O` [Ap13, apelin-13], the “Stimulation of HREC endothelial tube formation” value in [1] is “stimulated the formation of endothelial tubes”.
As to `NC(=O)c1ccc(Nc2ccnc3cc(Cl)ccc23)cc1` [Compound 1, 4-((7-chloroquinolin-4-yl)amino)benzamide], the IC50 at 48 h in series [2] (setting [9]) was above 50 µM. The IC50 is above 40 µM in series [3], above 99 µM with parental CHO-K1 cells, 0.556 ± 0.105 µM against APJ [4] and above 99 µM at APJ [5]. Also, the “Antagonism of Ap13-mediated recruitment of β-arrestin” value (“Antagonism … of β-arrestin” for short) at APJ [5] is “neither AQ nor 1, 3, 4, 5, or 6 antagonized”.
With `O=C(OCC(O)CO)c1ccccc1Nc1ccnc2cc(Cl)ccc12` (stereo not drawn) [Compound 3, glafenine], the IC50 at 48 h in series [2] (setting [9]) was above 50 µM. Further, the IC50 is above 99 µM in series [3], above 99 µM in the series on parental CHO-K1 cells, 1.15 ± 0.025 µM on APJ [4] and above 99 µM against APJ [5]. In addition, at APJ [5], the “Antagonism … of β-arrestin” value is “neither AQ nor 1, 3, 4, 5, or 6 antagonized”.
Take `COc1ccc(Nc2ccnc3cc(Cl)ccc23)cc1` [Compound 4, 7-chloro-N-(4-methoxyphenyl)quinolin-4-amine]: the IC50 at 48 h in series [2] was above 50 µM. The IC50 in [3] is above 40 µM; with parental CHO-K1 cells, above 99 µM; against APJ [4], 1.42 ± 0.038 µM; against APJ [5], above 40 µM. Moreover, at APJ [5], the “Antagonism … of β-arrestin” value is “neither AQ nor 1, 3, 4, 5, or 6 antagonized”.
Regarding `O=C(O)c1ccccc1Nc1ccnc2cc(Cl)ccc12` [Compound 5, 2-((7-chloroquinolin-4-yl)amino)benzoic acid], the IC50 in series [3] was above 40 µM; in the series on parental CHO-K1 cells, above 99 µM; against APJ [4], 0.937 ± 0.084 µM; at APJ [5] it was above 40 µM. The “Antagonism … of β-arrestin” value on APJ [5] is “neither AQ nor 1, 3, 4, 5, or 6 antagonized”.
Consider `O=C(c1ccccc1Nc1ccnc2cc(Cl)ccc12)N1CCOCC1` [Compound 6, (2-((7-chloroquinolin-4-yl)amino)phenyl)(morpholino) methanone], for which the 50% inhibitory concentration (IC50) is above 40 µM in series [3], above 99 µM with parental CHO-K1 cells, 23.5 ± 0.161 µM against APJ [4] and above 99 µM against APJ [5]. Further, the “Antagonism … of β-arrestin” value at APJ [5] is on record as “neither AQ nor 1, 3, 4, 5, or 6 antagonized”.
Regarding `CCNCc1cc(Nc2ccnc3cc(Cl)ccc23)ccc1O` [DEAQ, desethylamodiaquine], the “APJ antagonism in the APJ cAMP assay” value at APJ [4] is listed as “effective APJ antagonist equipotent to the parent AQ”.
For `O=C(Oc1coc(CSc2ncccn2)cc1=O)c1ccc([N+](=O)[O-])cc1` [ML221, 4-oxo-6-((pyrimidin-2-ylthio)methyl)-4H-pyran-3-yl 4-nitrobenzoate], the “Cytotoxicity to HRECs” value with HRECs [6] is “Neither ML221 nor AQ were significantly toxic”. Moreover, the “Effect on Ap13-dependent increase in HREC tube formation” value in series [1] (Ap13-induced, concentration-dependent) is reported as “blocked Ap13-dependent increases in tube formation”. Further, the “Effect on VEGF-induced HREC tube formation” value in [1] (VEGF 100 ng/mL, absence of exogenous Ap13) is “A similar effect was observed”.
As to VEGF, in the series with HRECs [7], the “Effect on HREC proliferation” value was “stimulated HREC proliferation and migration”. Further, the “Stimulation of HREC endothelial tube formation” value in [1] is given as “stimulated the formation of endothelial tubes”. Besides, the “Effect on HREC migration” value in the series with HRECs [8] was “stimulated HREC proliferation and migration”.
